Values after ≈ are worked out from the molar mass of the structure shown. Where two headings read alike, the source gives them in different places.
Columns and labels:
Reo virus-1 = test: Test 2: antiviral activity, reo virus-1 in Vero cells; format: cell-based; details: Reo virus-1, Vero cells; Table 3
Measles virus = test: microbe, parasite or virus in culture; format: cell-based; details: Measles morbillivirus, Vero
Sindbis virus = test: microbe, parasite or virus in culture; format: cell-based; details: Vero
[1] = Test 3: cytotoxicity, HeLa cells; format: cell-based; details: human, Table 4, read-out: Minimum cytotoxic concentration (MCC)
Experimental: (§1) A further test was effected to determine the cytotoxicity of the chemical compounds of Table 1. Cell cultures were incubated with varying concentrations of the esters, during a time period equal to the period required for measuring antiviral activity. The compounds (S)-DHPA and (RS)-DHPA were used for comparative purposes. For each compound, the minimum cytotoxic concentration (MCC) was measured, that is the concentration required to cause a microscopically detectable alteration of normal cell morphology, when incubated with the cells in this way.

Coxsackie virus-B4 = test: Test 2: antiviral activity, Coxsackie virus-B4 in HeLa cells; format: cell-based; details: Table 3
[2] = Test 3: cytotoxicity, PRK cells; format: cell-based; details: rabbit, Table 4, read-out: Minimum cytotoxic concentration (MCC)
Experimental: as §1

[3] = Test 3: cytotoxicity, Vero cells; format: cell-based, green monkey; details: monkey, Table 4, read-out: Minimum cytotoxic concentration (MCC)
Experimental: as §1

Parainfluenza-virus-3 = test: microbe, parasite or virus in culture; format: cell-based; details: Vero
living cells = details: known DHPA; cited from earlier work
DNA and RNA viruses [4] = details: known DHPA and related derivatives; cited from earlier work
Herpes simplex 1 (KOS) = test: Test 1: inhibition of virus cytopathic effect, herpes simplex 1 (KOS) in PRK cells; format: cell-based; details: Table 2, read-out: MIC50
Vaccinia = test: microbe, parasite or virus in culture; format: cell-based; details: Orthopoxvirus vaccinia, PRK, read-out: MIC50
Measles = test: microbe, parasite or virus in culture; format: cell-based; details: Measles morbillivirus, Vero; read-out: MIC50
Sindbis = test: Test 1: inhibition of virus cytopathic effect, Sindbis in Vero B cells; format: cell-based; details: Table 2, read-out: MIC50
Experimental: The antiviral properties of the esters prepared in Example 1 was explored in a variety of cell cultures and with a variety of DNA and RNA viruses such as listed in Table 2. The cells of each cell culture were inoculated with a certain virus in a dose of about 100 CCID50, that is about 100 times the dose needed to infect 50 percent of the cells. One hour after inoculation, the celss were washed with Eagle's nutrient medium and an ester of Example 1 was added in a dose varying from zero to 300 ug/ml and sometimes to more than 400 ug/ml. The compound (S)-DHPA was used in a comparative experiment. […] The cytopathic effect itself was measured in control experiments with virus-infected cell cultures without any added chemical compound and recorded as soon as it reached completion (Method of L. J. Rosenthal and I. L. Schechmaister in "Tissue Culture", p. 510, Academic Press, New York, 1973).
The results are shown in Table 2, wherein the abbreviations have the following meaning: PRK: primary culture of rabbit kidney cells; Vero: continuous line of green monkey kidney cells, HeLa: epithelial line of human cervical carcinoma cells.

Reovirus 1 = test: Test 1: inhibition of virus cytopathic effect, reovirus 1 in Vero B cells; format: cell-based; details: Mammalian orthoreovirus 1; Reovirus 1, Vero B cells; Table 2; read-out: MIC50
Polio 1 = test: microbe, parasite or virus in culture; format: cell-based; details: HeLa, read-out: MIC50
Parainfluenza = test: microbe, parasite or virus in culture; format: cell-based; details: Vero B; read-out: MIC50
Vesicular stomatitis = test: microbe, parasite or virus in culture; format: cell-based; details: PRK, read-out: MIC50
[5] = test system: Vesicular stomatitis virus; format: cell-based; details: ratio of MCC (PRK cells) to MIC50 (vesicular stomatitis virus)
DNA and RNA viruses [6] = test: Antiviral activity against DNA and RNA viruses (general statements); format: cell-based
Solubility = format: physicochemical

Structure (SMILES) | EC50 (Reo virus-1) [µg/mL] | EC50 (Measles virus) [µg/mL] | EC50 (Sindbis virus) [µg/mL] | MCC [1] [µg/mL] | EC50 (Coxsackie virus-B4) [µg/mL] | MCC [2] [µg/mL] | MCC [3] [µg/mL] | EC50 (Parainfluenza-virus-3) [µg/mL] | antiviral index [5] | also measured
CCCCCCCCOC(=O)C(O)Cn1cnc2c(N)ncnc21 (racemic) [Compound 9] | 7 (≈ 20.9 µM) | 70 (≈ 209 µM) | 30 (≈ 89.4 µM) | 100 | > 100 | 100 | 200 | 15 (≈ 44.7 µM) | – | –
Nc1ncnc2c1ncn2CC(O)CO (stereo not drawn) [DHPA, 9-(2,3-dihydroxypropyl)adenine] | – | – | – | – | – | – | – | – | – | acute toxicity for living cells (in words) (living cells): low acute toxicity for living cells; antiviral activity (in words) (DNA and RNA viruses [4]): broad-spectrum antiviral activity in (S) or (RS) form
COC(=O)[C@@H](O)Cn1cnc2c(N)ncnc21 [CH3 (S), methylester of 3-(adenin-9-yl)-2-hydroxypropanoic acid] | – | – | – | – | – | – | – | – | – | EC50 (Herpes simplex 1 (KOS)): > 400 µg/mL; EC50 (Vaccinia): 20 µg/mL (≈ 84.3 µM); EC50 (Measles): 70 µg/mL (≈ 295 µM); EC50 (Sindbis): > 400 µg/mL; EC50 (Reovirus 1): 300 µg/mL (≈ 1260 µM); EC50 (Polio 1): > 400 µg/mL; EC50 (Parainfluenza): 100 µg/mL (≈ 422 µM); EC50 (Vesicular stomatitis): 7 µg/mL (≈ 29.5 µM)
CCC(C)OC(=O)C(O)Cn1cnc2c(N)ncnc21 (racemic) [Compound 6] | 70 (≈ 251 µM) | 40 (≈ 143 µM) | 300 (≈ 1070 µM) | > 400 | > 400 | > 400 | > 400 | 200 (≈ 716 µM) | higher than 100 -fold | antiviral index ([5]; listed as 2-butyl): higher than 400 -fold
Nc1ncnc2c1ncn2C[C@@H](O)CO [DHPA R-enantiomeric form, 9-(2,3-dihydroxypropyl)adenine] | – | – | – | – | – | – | – | – | – | antiviral activity (in words) (DNA and RNA viruses [4]): rather inactive
COC(=O)C(O)Cn1cnc2c(N)ncnc21 (racemic) [Compound 1, methylester of 3-(adenin-9-yl)-2-hydroxypropanoic acid] | 200 (≈ 843 µM) | 40 (≈ 169 µM) | > 400 | > 400 | > 400 | > 400 | > 400 | 20 (≈ 84.3 µM) | higher than 100 -fold | EC50 (Herpes simplex 1 (KOS)): > 400 µg/mL; EC50 (Vaccinia): 7 µg/mL (≈ 29.5 µM); EC50 (Measles): 40 µg/mL (≈ 169 µM); EC50 (Sindbis): > 400 µg/mL; EC50 (Reovirus 1): 300 µg/mL (≈ 1260 µM); EC50 (Polio 1): > 400 µg/mL; EC50 (Parainfluenza): 100 µg/mL (≈ 422 µM); EC50 (Vesicular stomatitis): 3 µg/mL (≈ 12.6 µM)
COC(=O)[C@H](O)Cn1cnc2c(N)ncnc21 [CH3 (R), methylester of 3-(adenin-9-yl)-2-hydroxypropanoic acid] | – | – | – | – | – | – | – | – | – | EC50 (Herpes simplex 1 (KOS)): > 400 µg/mL; EC50 (Vaccinia): 15 µg/mL (≈ 63.2 µM); EC50 (Measles): 15 µg/mL (≈ 63.2 µM); EC50 (Sindbis): > 400 µg/mL; EC50 (Reovirus 1): 70 µg/mL (≈ 295 µM); EC50 (Polio 1): > 400 µg/mL; EC50 (Parainfluenza): 200 µg/mL (≈ 843 µM); EC50 (Vesicular stomatitis): 1.5 µg/mL (≈ 6.32 µM)
Nc1ncnc2c1ncn2C[C@H](O)CO [(S)--DHPA, 9-(2,3-dihydroxypropyl)adenine, reference compound] | 200 (≈ 956 µM) | 30 (≈ 143 µM) | > 400 | > 400 | > 400 | > 400 | > 400 | 20 (≈ 95.6 µM) | – | EC50 (Herpes simplex 1 (KOS)): > 400 µg/mL; EC50 (Vaccinia): 70 µg/mL (≈ 335 µM); EC50 (Measles): 70 µg/mL (≈ 335 µM); EC50 (Sindbis): > 400 µg/mL; EC50 (Reovirus 1): 70 µg/mL (≈ 335 µM); EC50 (Polio 1): > 400 µg/mL; antiviral activity (in words) (DNA and RNA viruses [4]): antivirally active; EC50 (Vesicular stomatitis): 30 µg/mL (≈ 143 µM)
CCOC(=O)C(O)Cn1cnc2c(N)ncnc21 (racemic) [Compound 2] | 40 (≈ 159 µM) | 20 (≈ 79.6 µM) | > 400 | > 400 | > 400 | > 400 | > 400 | 20 (≈ 79.6 µM) | higher than 100 -fold | antiviral index ([5]; listed as racemic ethyl): higher than 400 -fold
CC(C)COC(=O)C(O)Cn1cnc2c(N)ncnc21 (racemic) [Compound 7] | 150 (≈ 537 µM) | 40 (≈ 143 µM) | > 400 | > 400 | > 400 | > 400 | > 400 | 20 (≈ 71.6 µM) | higher than 100 -fold | antiviral index ([5]; listed as 2-methylpropyl): higher than 400 -fold
CCCOC(=O)C(O)Cn1cnc2c(N)ncnc21 (racemic) [Compound 3] | 200 (≈ 754 µM) | 100 (≈ 377 µM) | > 200 | 400 | > 400 | 100 | 400 | 100 (≈ 377 µM) | – | –
CCOC(=O)[C@@H](O)Cn1cnc2c(N)ncnc21 [C2 H5 (S)] | – | – | – | – | – | – | – | – | – | EC50 (Herpes simplex 1 (KOS)): > 400 µg/mL; EC50 (Vaccinia): 7 µg/mL (≈ 27.9 µM); EC50 (Measles): 100 µg/mL (≈ 398 µM); EC50 (Sindbis): > 400 µg/mL; EC50 (Reovirus 1): 70 µg/mL (≈ 279 µM); EC50 (Polio 1): > 400 µg/mL; EC50 (Parainfluenza): 100 µg/mL (≈ 398 µM); EC50 (Vesicular stomatitis): 1.5 µg/mL (≈ 5.97 µM)
CCCCOC(=O)C(O)Cn1cnc2c(N)ncnc21 (racemic) [Compound 5] | 150 (≈ 537 µM) | 25 (≈ 89.5 µM) | 150 (≈ 537 µM) | 400 | > 400 | 200 | 200 | 70 (≈ 251 µM) | – | –
Nc1ncnc2c1ncn2CC(O)C(=O)O (stereo not drawn) [3-(adenin-9-yl)-2-hydroxypropanoic acid] | – | – | – | – | – | – | – | – | – | antiviral activity (in words) (DNA and RNA viruses [6]): inactivity; solubility (in words) (Solubility): poorly soluble in water
Nc1ncnc2c1ncn2CC(O)C(=O)OC1CCCCC1 (racemic) [Compound 11] | 7 (≈ 22.9 µM) | 15 (≈ 49.1 µM) | > 100 | 100 | > 100 | 100 | 100 | > 40 | – | –
COCCOC(=O)C(O)Cn1cnc2c(N)ncnc21 (racemic) [Compound 10] | 70 (≈ 249 µM) | 400 (≈ 1420 µM) | > 400 | > 400 | > 400 | > 400 | > 400 | 300 (≈ 1070 µM) | – | –
Nc1ncnc2c1ncn2CC(O)CO (racemic) [(RS)--DHPA, 9-(2,3-dihydroxypropyl)adenine, reference compound] | 100 (≈ 478 µM) | 20 (≈ 95.6 µM) | > 400 | > 400 | > 400 | > 400 | > 400 | 20 (≈ 95.6 µM) | – | antiviral activity (in words) (DNA and RNA viruses [4]): antivirally active
CC(C)CCOC(=O)C(O)Cn1cnc2c(N)ncnc21 (racemic) [Compound 8] | 30 (≈ 102 µM) | 12 (≈ 40.9 µM) | 200 (≈ 682 µM) | 400 | > 400 | 400 | 400 | 200 (≈ 682 µM) | higher than 100 -fold | –
CC(C)OC(=O)C(O)Cn1cnc2c(N)ncnc21 (racemic) [Compound 4] | 40 (≈ 151 µM) | 150 (≈ 565 µM) | > 400 | > 400 | > 400 | > 400 | > 400 | 70 (≈ 264 µM) | higher than 100 -fold | –
